Where two headings read alike, the source gives them in different places.
Experiments:
[1] = tested on: HSV type 1
[2] = tested on: HSV-2 (333 strain); details: for % plaque inhibition: 2 hours pre-incubation
Experimental: In Series No. 1 of Example No. 1, monolayer cultures of Vero, RK-13 (rabbit kidney), and WISH (human amnion, Hayflick) cells were used in the experiments of Example No. 1. The cells were grown in Basal Minimal Eagle's Media supplemented with 5% fetal calf serum, 1% glutamine, sodium bicarbonate and antibiotics. Cultures were maintained in a maintenance media that was the same media, except that the maintenance media contained 2% fetal calf serum. An F Strain of HSV-1 was chosen because it is a well-known prototype of HSV-1. This F Strain can be obtained from the American Type Culture Collection (ATCC), 12301 Parklawn Drive, Rockville, Md. 20852, at which it is identified as ATC-VR 733. For studies with HSV-2, a G strain of HSV-2 (ATCC-VR 734) and a 333 strain of HSV-2 were selected. These strains also can be obtained from the ATCC.
Accordingly, the pre-inoculation experiments measured the effect of the drug on a cell that was already infected with the virus. The pre-incubation experiments measured the cell cultures that were treated with the drug prior to the inoculation to determine if these cells then would be permissive or non-permissive to the tested virus. In these experiments, plaque reduction assays provided a quantitative measure of antiviral activity and was deemed to be reliable and objective.
In the pre-incubation experiments, the media was either decanted or gently aspirated from the cultures. After decanting or aspirating, 1 ml of the drug dilution plus maintenance media was added to the cultures. The cultures that served as virus controls or cell controls received 2 ml of maintenance media. After the pre-treatment period, the media was again aspirated and the cell cultures were infected with the virus.
When this occurred, the cultures were fixed and stained with crystal violet. The plaque were then carefully counted under the microscope. By such a counting and careful comparison, percentages of plaque inhibition in the treated cultures were then calculated.
The 333 strain, which can be obtained from ATCC, was used.

[3] = tested on: vaccinia

CC[N+](CC)(CC)CC.[Cl-] [TEAC, tetraethylammonium chloride]
crusting ([1]; Patient L, 2.9 cc, normally 3 weeks): on the 7th day after the treatment, the crusting had all disappeared | labialis lesion ([1]; Patient M, 1% TEAC ointment resumed, three days later): the lesion had not spread and had now crusted | clearing of lesions ([1]; Patient M, 1% TEAC ointment, five days later): cleared in a shorter time period than usual | sensitivity to TEAC vs HSV-1 ([2]; 333 strain): even more sensitive to TEAC than HSV-1 | % plaque inhibition ([2]; 12.5 mg/culture): 25% | % plaque inhibition ([2]; 25 mg/culture): 42% | % plaque inhibition ([2]; 50 mg/culture): 56% | inhibition of in vitro replication ([2]; HSV-2, summary): inhibited the in vitro replication of HSV-1 and HSV-2 | cell layer appearance [3]: thin | plaque formation [3]: did not have any plaque
